The values that follow come from publication PMC4964015 (Annals of Clinical Microbiology and Antimicrobials, 2016).

Experiment [1] has as its system S. meliloti cells. Description: Membrane potential, DiOC2(3) red/green fluorescence (BacLight kit). It is filed as cell-based, Sinorhizobium meliloti. The settings on record: BacLight Bacterial Membrane Potential Kit. From the text:
For the measurements, the BacLight™ Bacterial Membrane Potential Kit (Thermo Fisher Scientific) was used according to the instructions of the manufacturer.

Experiment [2] deals with S. meliloti outer membrane. Put plainly: Outer membrane permeability, NPN fluorescence. The class given is cell-based, Sinorhizobium meliloti. The note with it: for outer membrane permeabilization (NPN fluorescence): peptides tested at 50, 25, 12.5 and 6.25 µg/ml, 5 mM HEPES pH 7.2, 50 µg/ml = NCR335 6.4 µM, NCR247 16.6 µM, NCR001 9.5 µM, PMB 36 µM. As for the experimental part: The cells from exponentially growing cultures were collected, washed and suspended in 5 mM HEPES buffer (pH=7.2). 80 µl NPN of 25 µM concentration and 100 µl of bacterial suspension (OD600=0.1) were pipetted into the wells of a black 96-well microtiter plate and the fluorescence were measured for 3 cycles (9 seconds/cycle) in a FLUOstar OPTIMA plate-reader (BMG Labtech). After the three cycles, 20 µl of peptide was added and the fluorescence were measured for an additional 18 cycles.

For experiment [3], the system named is rhizobia (Sinorhizobium meliloti). Put plainly: Killing assay in phosphate buffer (number of living cells). The class given is cell-based. The settings on record: 50 µg/ml peptide in phosphate buffer for three hours. As for the experimental part:
(§1) In this study, we investigated how NCR247 and NCR335 affect the cell surface as well as the outer and inner membranes (OM and IM respectively) of the α-Proteobacterium S. meliloti, the natural target of the peptides. We compared the effect of these NCR peptides to that of Polymyxin B (PMB), which alters bacterial outer membrane permeability and then disrupts the cytoplasmic membrane of gram-negative bacteria. […] NCR247 and NCR335 inhibited the growth of rhizobia at 25 and 12 µg/ml (Minimal Inhibitory Concentration), respectively, in broth microdilution assays, and were able to decrease the number of living cells by two and four orders of magnitude, respectively, when they were used at 50 µg/ml concentration in phosphate buffer for three hours. In other—including clinically relevant—bacteria, the minimal bactericid concentration of the peptides varied between 20 and 125 µg/ml (Additional file 1). […] Prolonging the treatment for 3 h caused no further changes, cells treated for 1 and 3 h were alike. These observations were in line with reported surface corrugation of the E. coli cell envelope by NCR247 [18]. Similar study on the NCR335 treated S. meliloti cultures could not be performed as the bacteria lost their attachment to the poly-L-lysine coated muscovite mica surface.

The subject of experiment [4] is S. meliloti cells. Description: Atomic force microscopy of immobilized cells. The class given is cell-based, Sinorhizobium meliloti. An excerpt:
Details of the measurements and sample preparations are described in Reference 18.
Nagy K, Mikulass KR, Vegh AG, Kereszt A, Kondorosi E, Varo G, Szegletes Z: Interaction of cysteine-rich cationic antimicrobial peptides with intact bacteria and model membranes. Gen Physiol Biophys 2015, 34(2):135-144

The subject of another experiment is fungi. The note with it: cited from earlier work. From the text: (§2) Extremely rich sources of AMPs are the plants where up to several hundreds of peptide-coding genes can be expressed in specific organs constitutively or induced locally or systematically by the attack of pathogenic microbes. […] In Medicago truncatula nodule cells infected with Sinorhizobium meliloti, hundreds ...

The next experiment relates to Escherichia coli cells. The note with it: cited from earlier work.
Excerpt: as §2

Experiment [5] concerns gram-negative and gram-positive bacteria. The settings on record: cited from earlier work.
Excerpt: as §2

Another experiment concerns Salmonella typhimurium. Description: Minimal bactericid concentration (MBC). It is filed as cell-based.
The subject of another experiment is Pseudomonas aeruginosa. Description: Minimal bactericid concentration (MBC). The class given is cell-based.
A further experiment has as its system Escherichia coli K12. Description: Minimal bactericid concentration (MBC). The class given is cell-based.
Another experiment has as its system Lactobacillus plantarum. Description: Minimal bactericid concentration (MBC). It is filed as cell-based.
A further experiment deals with Listeria monocytogenes. Description: Minimal bactericid concentration (MBC). It is filed as cell-based.
Another experiment deals with Staphylococcus aureus. Put plainly: Minimal bactericid concentration (MBC). The class given is cell-based.
The test system of experiment [6] is rhizobia (Sinorhizobium meliloti). Description: Broth microdilution assay (Minimal Inhibitory Concentration). It is filed as cell-based. The note with it: growth inhibition of rhizobia. As for the experimental part:
as §1
(Broth dilution looks for growth in wells or tubes with falling amounts of substance.)

Experiment [7] concerns Sinorhizobium meliloti AK631. Description: Minimal bactericid concentration (MBC). It is filed as cell-based.

Peptide text beside a SMILES is read from it.

For Polymyxin B [PMB, reference compound], the “effect on membrane potential (DiOC2(3) red/green fluorescence ratio)” value in the experiment with S. meliloti cells [1] is on record as “loss of membrane potential”. Also, the “outer membrane permeabilization (NPN fluorescence)” value in experiment [2] is listed as “most pronounced effect”.

In the case of `CC[C@H](C)[C@H](NC(=O)[C@H](CS)NC(=O)CNC(=O)[C@H](CC(N)=O)NC(=O)[C@@H](N)CCCNC(=N)N)C(=O)N[C@H](C(=O)N[C@@H](CC(=O)O)C(=O)N1CCC[C@H]1C(=O)N[C@@H](CCCNC(=N)N)C(=O)N[C@@H](CS)C(=O)N1CCC[C@H]1C(=O)N[C@@H](Cc1ccc(O)cc1)C(=O)N[C@@H](CCC(N)=O)C(=O)N[C@@H](CCC(N)=O)C(=O)N[C@@H](CS)C(=O)N[C@@H](CCCNC(=N)N)C(=O)N[C@@H](CCCNC(=N)N)C(=O)N1CCC[C@H]1C(=O)N[C@@H](CC(C)C)C(=O)N[C@@H](Cc1ccc(O)cc1)C(=O)N[C@@H](CS)C(=O)N[C@@H](CCCNC(=N)N)C(=O)N[C@@H](CCCNC(=N)N)C(=O)N[C@@H](CCCNC(=N)N)C(=O)O)C(C)C` [NCR247] (H-RNGCIVDPRCPYQQCRRPLYCRRR-OH; C-terminus assumed), in experiment [3], the “decrease of the number of living cells” value is “two”. Moreover, the “average height of bacteria (AFM)” value with S. meliloti cells [4] (25 µg/ml, average height ~600 nm) is reported as “no change in the average height”. In addition, the “cell surface roughness / surface alterations (AFM)” value with S. meliloti cells [4] (treatment for 1 h, 3 h caused no further changes) was “increased the surface roughness”. The “antimicrobial activity against fungi” value in the experiment with fungi was “effective”. Besides, in the experiment with Escherichia coli cells, the “surface roughness of treated Escherichia coli cells (AFM)” value is “increased surface roughness”. Besides, the “antimicrobial activity against gram-negative and gram-positive bacteria” value in [5] was “effective”. The “effect on membrane potential (DiOC2(3) red/green fluorescence ratio)” value with S. meliloti cells [1] is given as “loss of membrane potential”. Moreover, the “outer membrane damage (NPN fluorescence)” value in [2] (25 µg/ml, compared with 50 µg/ml) is “even weaker”; in experiment [2] (50 µg/ml), “only a mild damage”; in [2] (concentrations lower than 25 µg/ml) it was “no effect”.

Turning to “H-RLNTTFRPLNFKMLRFWGQNRNIMKHRGQKVHFSLILSDCKTNKDCPKLRRANVRCRKSYCVPI [NCR335, cationic nodule-specific cysteine-rich peptide of Medicago truncatula, chemically synthetized, pI 11.22]”, the MBC stood at 50 µg/mL against Salmonella typhimurium; 70 µg/mL against Pseudomonas aeruginosa; 50 µg/mL against Escherichia coli K12; 30 µg/mL in the experiment on Lactobacillus plantarum; 20 µg/mL against Listeria monocytogenes; 30 µg/mL with Staphylococcus aureus. The MBC in [7] came to 50 µg/mL. Also, in experiment [3], the “decrease of the number of living cells” value is reported as “four”. The “Minimal Inhibitory Concentration” value in [6] came to 12 µg/mL. In addition, the “antimicrobial activity against fungi” value in the experiment on fungi is given as “effective”. The “surface roughness of treated Escherichia coli cells (AFM)” value with Escherichia coli cells is on record as “increased surface roughness”. For the same compound, in experiment [5], the “antimicrobial activity against gram-negative and gram-positive bacteria” value was “effective”. In addition, the “effect on membrane potential (DiOC2(3) red/green fluorescence ratio)” value in the experiment on S. meliloti cells [1] is given as “loss of membrane potential”. In addition, the “outer membrane permeabilization (NPN fluorescence)” value in experiment [2] is “equally efficient at 50, 25 and 12.5 µg/ml but provoked a weaker OM permeabilization than PMB”.

For `N#CC(C#N)=NNc1cccc(Cl)c1` [CCCP, carbonyl cyanide m-chlorophenyl hydrazone, reference compound], the “effect on membrane potential (DiOC2(3) red/green fluorescence ratio)” value in the experiment on S. meliloti cells [1] is given as “loss of membrane potential”.

By MBC is commonly meant the smallest concentration meeting the test's criterion for killing.
